Test results published in patent US20100190723A1, “PREVENTIVE OR THERAPEUTIC COMPOSITION FOR LIVER DISEASE” (priority 2007, published 2010).
Square brackets hold non-standard residues; d marks the D form. Ends that are not written are not given here. pGlu = O=C1CC[C@@H](C(=O)O)N1

Legend:
[1] = system: Hepatic Disorder Rat Model; test: Administration test using hepatic disorder rat model (D-galactosamine), oral peptide (Test Example 2); assay type: in vivo; settings: peptide 40 mg/kg orally, Wistar rats; for GOT: blood GOT level 24 hours after D-galactosamine 800 mg/kg i.p., water control 2180; for GPT: blood GPT level 24 hours after D-galactosamine 800 mg/kg i.p., water control 391
Method: (§1) Wistar rats (4- to 5-week old) were used for the experiment. Rats were preliminarily fed for a week with purified standard feeds and subjected to fasting for 4 hours. pyroGlu-Leu obtained in Production Example 2 and pyroGlu-Ile obtained in Production Example 3 were each dissolved in water at 10 mg/l ml, and the resulting solutions were administered intraperitoneally in amounts of 20 mg/kg each. D-galactosamine (Sigma) was administered intraperitoneally in an amount of 800 mg/kg 1 hour later. Rats were allowed to freely eat 4 hours after D-galactosamine administration. Each group consisted of 5 rats, and water was administered to the control group instead of the peptide of the present invention.
(§2) Blood was sampled from the rats 24 hours after D-galactosamine administration, and GOT and GPT levels in the blood were assayed to compare the degrees of hepatic disorders.
(§3) GOT and GPT levels were assayed in accordance with the JSCC standardization method (Hiroshi Miura, Japanese Journal of Clinical Medicine (Nippon Rinsho), 53-reprinted-266, 1995).
The test was carried out in the same manner as in Test Example 1. pyroGlu-Gln-Gln, pyroGlu-Gln, pyroGlu-Leu, or pyroGlu-Ile obtained in Production Example 5 was dissolved in water at 10 mg/l ml, and the resulting solution was administered orally to rats in amounts of 40 mg/kg.

[2] = system: Hepatic Disorder Rat Model; test: Administration test using hepatic disorder rat model (D-galactosamine), intraperitoneal peptide (Test Example 1); assay type: in vivo; settings: peptide 20 mg/kg intraperitoneally 1 hour before, Wistar rats; for GOT: blood GOT level 24 hours after D-galactosamine 800 mg/kg i.p., water control 391; for GPT: blood GPT level 24 hours after D-galactosamine 800 mg/kg i.p., water control 50
Method: as §1, §2, §3

[pGlu]-Gln
GOT [1]: 509 IU/L
GPT [1]: 124 IU/L

[pGlu]-Gln-Gln
GOT [1]: 524 IU/L
GPT [1]: 100 IU/L

[pGlu]-Ile
GOT [2]: 314 IU/L
GPT [2]: 45 IU/L
GOT [1]: 491 IU/L
GPT [1]: 98 IU/L

[pGlu]-Leu
GOT [2]: 215 IU/L
GPT [2]: 30 IU/L
GOT [1]: 555 IU/L
GPT [1]: 131 IU/L
